Consider seven compounds from article PMC8727363, “Therapeutic Effect of Novel Cyanopyrrolidine-Based Prolyl Oligopeptidase Inhibitors in Rat Models of Amnesia” (Frontiers in Chemistry, 2021).

What is called IC50 is the concentration that inhibits the measured activity by half.

The structures appear in SMILES notation. “And” between values parts separate entries of the source, which are not always exact repeats. Equal entries are not always repeated.

The target of data set [1] is T1, POP isolated from rat brain (Rattus norvegicus, UniProt O70196).
T1 construct: the resulting POP preparation was a homogeneous monomer with molecular weight of 75 kDa; from tissue; host or cells: rat brain
T1 sequence (O70196 1-710): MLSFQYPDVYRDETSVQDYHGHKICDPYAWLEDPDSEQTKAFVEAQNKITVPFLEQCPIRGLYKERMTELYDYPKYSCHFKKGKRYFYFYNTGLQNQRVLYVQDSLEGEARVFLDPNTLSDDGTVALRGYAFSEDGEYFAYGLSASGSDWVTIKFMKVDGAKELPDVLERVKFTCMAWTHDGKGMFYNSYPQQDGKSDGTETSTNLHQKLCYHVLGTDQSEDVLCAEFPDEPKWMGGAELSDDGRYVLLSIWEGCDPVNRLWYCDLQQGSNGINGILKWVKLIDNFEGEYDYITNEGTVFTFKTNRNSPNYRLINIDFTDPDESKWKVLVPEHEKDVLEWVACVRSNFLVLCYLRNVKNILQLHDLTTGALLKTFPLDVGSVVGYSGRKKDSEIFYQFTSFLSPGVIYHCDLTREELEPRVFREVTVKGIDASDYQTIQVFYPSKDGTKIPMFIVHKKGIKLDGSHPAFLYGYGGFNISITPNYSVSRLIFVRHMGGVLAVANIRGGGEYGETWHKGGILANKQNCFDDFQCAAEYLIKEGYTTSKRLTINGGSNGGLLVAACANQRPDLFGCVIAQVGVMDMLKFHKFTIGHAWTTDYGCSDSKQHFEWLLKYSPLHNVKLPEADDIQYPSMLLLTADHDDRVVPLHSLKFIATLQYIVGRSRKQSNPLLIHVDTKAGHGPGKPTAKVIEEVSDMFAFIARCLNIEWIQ
Nature of the data set: POP inhibition assay (release of AMC from Cbz-Ala-Pro-AMC). The conditions noted are these: substrate Cbz-Ala-Pro-AMC 20 μM, 30 min at 37°C, pH 7.5, read-out: IC50, POP inhibitory activity. The format is biochemical. How it is done:
Briefly, rat brain homogenate was precipitated with ammonium sulfate, followed by ion exchange chromatography on DEAE-Sephadex A-50, gel chromatography on Sephadex G-75, and high-performance liquid chromatography on a MonoQ column using FPLC. […] Purified POP was concentrated by ultrafiltration and stored at −80°C.
The reaction was initiated by addition of the substrate (20 μM) in a final reaction volume of 2 ml. The incubation mixture consisted of 50 μl of the enzyme preparation in 20 mM Tris-HCl buffer (pH 7.5) with 1 mM EDTA, 1 mM dithiothreitol, and 0.1% NP–40; 50 μl of 1 mg/ml substrate solution in DMSO; and 1.9 ml of Tris-HCl buffer. […] After a 30-min incubation at 37°C, the reaction was stopped by addition of 1 ml of acetate buffer (pH 4.0). The AMC concentration was determined on an LS–5B spectrofluorometer (Perkin–Elmer, United States) with excitation and emission wavelengths of 380 and 460 nm, respectively.

Data set [2] deals with scopolamine-induced amnesia. Kind of data set: Scopolamine-induced amnesia of conditioned passive avoidance reflex (CPAR). The format is in vivo, rat. The conditions noted are these: for CPAR retention time, scopolamine-induced amnesia: doses 1 and 2 mg/kg i.p., vs scopolamine only. How it is done:
(§1) The development of CPAR was performed on a standard passive avoidance device from Lafayette Instrument Co. (United States). The device consists of a small platform located at a distance of 1 m from the floor, illuminated by a special lamp, and a dark chamber with an electrode floor. During learning, a rat was placed on the small platform in front of the entrance to the dark chamber. Immediately after entering the dark chamber, the rat received a painful stimulation from an electric current of 0.6 mA through the electrode floor lasting 10 s or until the rat ran out of the chamber (learning). […] If the rat entered the dark chamber, the training was repeated. A test for the refiex reproduction was performed after 24 h. In this case, the rat was placed on a lighted area, and step-through latency time (STL) of its entry into the dark chamber was recorded. The observation time was 3 min. The criterion for refiex reproduction was considered to be the STL of entry into the dark box.
Experiments were performed using two rat models of amnesia. In the first model, effects of POP inhibitors on scopolamine-induced amnesia were studied. The series included eighteen groups of animals (137 rats). Rats in the negative control group (group 1, n = 8) received 2 ml of vehicle (physiological saline solution containing 1% Tween 80) i.p. 40 min before the CPAR learning. Rats in the non-treated group (group 2, n = 7) received scopolamine (1 mg/kg, i.p. in 2 ml of vehicle) 20 min before the CPAR learning. […].

In the next data set the test system is MES-induced amnesia. Nature of the data set: MES-induced amnesia of conditioned passive avoidance reflex (CPAR). The format is in vivo. The settings on record: rat; for Antiamnesic activity, MES-induced amnesia, 1 and 2 mg/kg: doses of 1 and 2 mg/kg; for Potency in comparison with piracetam, MES-induced amnesia: vs piracetam 300 mg/kg; for Antiamnesic activity, MES-induced amnesia, 1 mg/kg: comparable with piracetam 300 mg/kg. On the procedure: as §1
In the second model, effects of POP inhibitors on MES-induced amnesia were studied. The series included fifteen groups of animals (110 rats). Rats in the negative control group (group 1, n = 8) received 2 ml of vehicle (physiological saline solution containing 1% Tween 80) i.p. 30 min before the CPAR learning. Rats in the positive control group (group 2, n = 7) received MES just after CPAR learning. MES was induced using an electric shock generator from Harvard Apparatus (Holliston, MA, United States) consisting of a current (250 V, 120–122 20 mA, delivered for 0.1 s) by way of corneal electrodes. Rats of groups 3–14 received a single injection of POP inhibitor at doses of 0.5, 1, and 2 mg/kg, including BocTrpPrdN (groups 3–5, n = 7 in each), BocGlyPrdN (groups 6–8, n = 6 in each), CbzMetPrdN (groups 9–11, n = 8 in each), and CbzGlnPrdN (groups 12–14, n = 8 in each) 40 min prior to the CPAR learning (three groups of animals for each inhibitor) with following MES just after CPAR learning. Rats in group 15 (n = 8) received piracetam (300 mg/kg, i.p.) 50 min before the CPAR learning and MES just after CPAR learning.

In data set [3] the test system is dipeptidyl peptidase IV (DPP-4). Details: method as in Ivanova et al., 2020. The conditions noted are these: ref Ivanova et al., 2020; cited from earlier work.
The nature of data set [4]: Tissue concentration of CbzMetPrdN in the brain after single i.p. administration. The format is in vivo. The settings on record: single i.p. 20 mg/kg. On the procedure: (§2) The total drug concentrations for CbzMetPrdN and POP activity in the brain were determined as a function of time at 0, 20, 40, 60, 80, and 120 min (n = 3 for each time-point) after a single 20 mg/kg intraperitoneal (i.p.) administration of CbzMetPrdN. The test animals were sacrificed, and their brains were harvested and immediately homogenized in phosphate buffer saline.
For measurement of the brain tissue concentration of CbzMetPrdN, the homogenate was mixed with an equal volume of methanol and centrifuged at 3,000 g for 10 min. The supernatant was concentrated to 2 ml, followed by solid phase extraction in a Retain AX SPE cartridge (Thermo Fisher Scientific). The cartridge was washed with 1 ml of 5% ammonia solution and then with 1 ml of methanol. The sample was eluted with 1 ml of 2% trifluoroacetic acid in methanol and analyzed using a Gilson 41 HPLC system (Gilson, United Kingdom) with a 125 × 4 mm Nucleosil C18 column (Macherey-Nagel). The column was washed for 3 min with 4 mM hexanesulfonate in water (pH 3.5), followed by a 0–100% gradient of 4 mM hexanesulfonate in acetonitrile:water (50:50) % (v/v) over 10 min. The concentration of the POP inhibitor is expressed in ng of CbzMetPrdN per mg of brain protein.

For data set [5], the system named is MPTP-induced Parkinsonian syndrome. Details: method as in earlier work. The conditions noted are these: ref Khlebnikova et al., 2009b, Krupina et al., Khlebnikova et al., 2012, 2013a, 2013b, Kalinina et al., 2019; cited from earlier work.
The target in the next data set is T2, POP (Rattus norvegicus, UniProt O70196).
T2 construct: from tissue; host or cells: brain homogenate of rats dosed i.p. with CbzMetPrdN
T2 sequence (O70196 1-710): T1 sequence (O70196 1-710)
Nature of the data set: POP activity in brain tissue homogenate after single i.p. administration. The format is in vivo. How it is done: as §2
POP activity in the brain tissue homogenate was measured using Cbz-Ala-Pro-AMC, as described above, and is presented as nmole AMC released/min/mg of brain protein. Protein concentrations of the supernatants were determined with a Bio-Rad protein assay kit.

On the set-up of data set [6]: method as in Jalkanen et al., 2011a; Jalkanen et al., 2014. The settings on record: mouse and rat, ref Jalkanen et al., 2011a, 2014; cited from earlier work.

For `CC(C)(C)OC(=O)NCC(=O)N1CCC[C@H]1C#N` [BocGlyPrdN, N-(tert-butoxycarbonyl)glycyl-(2S)-pyrrolidine-2-carbonitrile], the IC50 in data set [1] was found to be 12 ± 3 nM. The “CPAR retention time, scopolamine-induced amnesia” value (from here on “CPAR retention time”) in data set [2] (rat, scopolamine 1 mg/kg) is listed as “significantly prolonged CPAR retention time”. For the same compound, in the data set on MES-induced amnesia, the “Antiamnesic activity, MES-induced amnesia, 1 and 2 mg/kg” value is reported as “exhibited antiamnesic activity”; the “Potency in comparison with piracetam, MES-induced amnesia” value is recorded as “less potent”.

With `CC(C)(C)OC(=O)N[C@@H](Cc1c[nH]c2ccccc12)C(=O)N1CCC[C@H]1C#N` [BocTrpPrdN, N-(tert-butoxycarbonyl)-L-tryptophanyl-(2S)-pyrrolidine-2-carbonitrile], the IC50 in data set [1] came to 9 ± 0.9 nM. In addition, in data set [2] (rat, 0.5-2 mg/kg i.p., scopolamine 1 mg/kg), the “Antiamnesic activity, scopolamine-induced amnesia (overall)” value is recorded as “clear tendency toward antiamnesic activity”. In the data set with MES-induced amnesia, the “Antiamnesic activity, MES-induced amnesia, 1 and 2 mg/kg” value is “exhibited antiamnesic activity”; the “Potency in comparison with piracetam, MES-induced amnesia” value was “less potent”.

Consider `C[C@H](NC(=O)OCc1ccccc1)C(=O)N1CCC[C@H]1C#N` [CbzAlaPrdN, N-benzoxycarbonyl-L-alanyl-(2S)-pyrrolidine-2-carbonitrile], for which the “Antiamnesic effect, scopolamine-induced amnesia, all doses” value in data set [2] (rat, 0.5, 1 and 2 mg/kg i.p., scopolamine 1 mg/kg) is reported as “not effective”.

For the compound `N#C[C@@H]1CCCN1C(=O)[C@H](CCC(N)=O)NC(=O)OCc1ccccc1` [CbzGlnPrdN, N-Benzyloxycarbonyl-L-glutaminyl-(2S)-pyrrolidine-2-carbonitrile], the IC50 in data set [1] is ~2 nM and 2 nM. For the same compound, the “CPAR retention time” value in data set [2] (rat, scopolamine 1 mg/kg) is recorded as “significantly prolonged CPAR retention time”. Moreover, the “Antiamnesic activity, MES-induced amnesia, 1 mg/kg” value in the data set with MES-induced amnesia is on record as “potent antiamnesic activity”.

On to `CSCC[C@H](NC(=O)OCc1ccccc1)C(=O)N1CCC[C@H]1C#N` [CbzMetPrdN, N-Benzyloxycarbonyl-L-methionyl-(2S)-pyrrolidine-2-carbonitrile], for which the IC50 in data set [1] is 2.1 ± 0.6 nM. Besides, the “Inhibition of DPP-4 activity” value in data set [3] is “inhibited activity”. In addition, the “CPAR retention time” value in data set [2] (rat, scopolamine 1 mg/kg) is recorded as “significantly prolonged CPAR retention time”. Also, in the data set with MES-induced amnesia, the “Antiamnesic activity, MES-induced amnesia, 1 mg/kg” value was “potent antiamnesic activity”. Further, in data set [4] (rat), the “Time point with maximal concentration in the brain” value worked out at 60 min. Moreover, the “Accumulation in rat brain tissue” value in data set [4] (0-120 min) is on record as “accumulated in the brain”. Further, in data set [5], the “Effect in preclinical model of Parkinsonian syndrome (MPTP)” value was “exhibited neuroprotective activity and abolished depressive symptoms”. Also, the “Inhibition of POP in the brain” value at POP (administered intraperitoneally) is listed as “effectively inhibits POP in the brain”. The “Time of maximal inhibition of brain POP activity” value at POP (single i.p. 20 mg/kg) is on record as 60 min.

Turning to `N#C[C@@H]1CCCN1C(=O)[C@@H]1CCCN1C(=O)CCCc1ccccc1` [KYP-2047, (2S)-1-[[(2S)-1-(1-oxo-4-phenylbutyl)-2-pyrrolidinyl]carbonyl]-2-pyrrolidinecarbonitrile], the Brain penetration entry in data set [6] is “penetrates mouse and rat brains”.

For the compound `CN1[C@@H]2C[C@@H](OC(=O)[C@H](CO)c3ccccc3)C[C@H]1[C@@H]1O[C@@H]12` [scopolamine, reference compound], the “Latency period (STL) in CPAR test” value in data set [2] (rat, scopolamine 1 mg/kg i.p. 20 min before learning, vehicle-treated rats 145.0 ± 21.7 s) worked out at 23.5 ± 9.6 s.
